Test results from patent US20190117675A1, “Compositions And Methods To Treat And/Or Prevent Vision Disorders Of The Lens Of The Eye” (Helix Holding Company, priority 2014, published 2019).

Columns and labels:
[1] = system: cataractous rabbit lens; assay: Treatment of isolated cataractous rabbit lenses; details: isolated rabbit lenses incubated with lanosterol for 6 days
Description: FIG. 9. […] Rabbit lenses (n=13) were dissected and incubated with lanosterol for 6 days and subsequently assessed for lens clarity and transparency. Pairs of photographs of each cataractous rabbit lens showing before and after treatment with scores underneath are shown.
Rabbits were euthanized by CO2 inhalation and lenses were immediately dissected and were treated with vehicle or lanosterol dissolved in vehicle to make 5 mM solutions. Lens tissues were incubated in these solutions for 6 days in the dark at room temperature. Cataract were examined under a microscope and then photographed. Degree of cataract was assessed using AREDS cataract grading system.

[2] = system: dog eyes with cataracts; assay: Treatment of cataract lenses in dogs; type: in vivo; details: dog eyes treated with lanosterol for 6 weeks (intravitreal nanoparticles plus eye drops three times daily)
Description: Grading System of Dog Cataract • Grade 0: absence of opacification (no cataract); • Grade 1: a slight degree of opacification (incipient stage); • Grade 2: presence of diffuse opacification involving almost the entire lens (immature stage); • Grade 3: presence of extensive thick opacification involving the entire lens (mature stage)
To assess the effect of lanosterol treatment on cataract in live animals, left eye of dogs with bilateral cataract were treated for topical eye drops. The right eye of each animal was administered one drop of vehicle, 3 times a day so that the drop coated the eye. One drop of lanosterol was administered to the left eye of each animal in the same manner. Both eyes of some control animals were treated for vehicle. […] Each lens was recorded by photography. Degree of cataract was assessed using AREDS cataract grading system.
This study was approved by TACUC of Zhongshan Ophthalmic Center and West China Hospital. […] Degree of cataract was assessed by a blinded examiner and scored based on canine cataract stage, shown below. Improvements in lens clarity and transparency were quantified. […]
The mixture solution was then stirred for 2 h to allow the nanoparticles to form and the acetonitrile to evaporate. […] The loading yield of lanosterol was quantified by high performance liquid chromatography.

SMILES: CC(C)=CCC[C@@H](C)[C@H]1CC[C@@]2(C)C3=C(CC[C@]12C)[C@@]1(C)CC[C@H](O)C(C)(C)[C@@H]1CC3 [Lanosterol]
- cataract severity and lens clarity [1]: reduced cataract severity and increased clarity
- cataract severity and lens clarity [2]: reduced cataract severity and increased lens clarity
